What was measured:
hematopoietic stem cells [1] = test: Cell cycle (Ki-67, BrdU) and apoptosis (Annexin V) of bone-marrow cells 1 week after bone-marrow transplantation (Experimental Example 9); type: in vivo, mice
Method: In accordance with Experimental Example 7 (1), bone-marrow transplantation was conducted, and after the transplantation, physiological saline (control group), tPA (tPA-administered group), or compound a (compound a-administered group) was administered.
1 week after bone-marrow transplantation, the bone marrow was collected, and Ki-67 protein, which is a cell division marker, was immunostained with anti-Ki-67-FITC antibody (BD Bioscience) to analyze the cells in the cell-division cycle by FACSCalibur.
Subsequently, the number of Ki-67 positive cells in the cells of LSK fraction was examined to confirm that the proliferation of hematopoietic stem cells is promoted by compound a.
In addition, to more accurately detect the cells that moved to the S phase, 5-bromo-2-deoxyuridine (BrdU)-FITC (BD Pharmingen) was administered to the control group, tPA group, and compound a-administered group 1 week after bone-marrow transplantation, 3 hours before the collection of bone marrow. 6 mice were used for each group.
Because BrdU is a thymine derivative, BrdU, substituting for thymine, is incorporated into genomic DNA or the like during DNA replication. BrdU more specifically reflects the S phase than Ki-67 protein.
1 week after bone-marrow transplantation, bone marrow was collected from the control group, tPA group, and compound a-administered group (6 mice for each group), and Annexin V, which appears specifically in apoptosis, was detected with anti-Annexin V antibody immunostaining.

[2] = system: CML cells (32Dp210-GFP cells); test: Chronic myelogenous leukemia model mice, imatinib and compound a (Experimental Example 11); type: in vivo, C3H/HeJ mice
Method: p210(BCR-ABL) gene was inserted into a MIGR1 vector, and GFP cDNA was further incorporated as a reporter gene downstream of the gene (hereinafter, the vector is referred to as “p210-GFP”). p210-GFP was infected with 32D cells (C3H/HeJ mice cell line), and chronic myelogenous leukemia (hereinafter, referred to as “CML”) cells were prepared. 2.5×10^5 of the thus-obtained CML cells (32Dp210(BCR-ABL)-GFP cells, hereinafter, referred to as “32Dp210-GFP cells”) were intravenously administered into the retro-orbital plexus of C3H/HeJ mice. 7 to 10 days after the transplantation, the abundance ratio of GFP cells in the peripheral blood was analyzed, and mice with more than 3% of abundance ratio were used as chronic myelogenous leukemia model mice in the following experiments.
15 chronic myelogenous leukemia model mice prepared by using the procedure described above were divided into the following 3 groups (each group: n=15), and a test drug was administered to the mice in accordance with the protocol shown in FIG. 15A.
Group 1: placebo group (physiological saline was administered via gavage)
Group 2: imatinib group (imatinib [150 mg/kg/day] was administered via gavage)
Group 3: imatinib+compound a group (imatinib [150 mg/kg/day] and compound a [100 mg/kg/day] were administered via gavage)
10 days (day 10) after the day on which CML cells were intravenously inoculated (day 0), administration of test drugs to the groups was started. The placebo group and the imatinib group were administered the respective test drugs once a day from day 10 to day 16 (7 doses in total). The imatinib+compound a group was administered imatinib once a day from day 10 to day 16 (7 doses in total), and also administered compound a once a day from day 10 to day 14 (5 doses in total).
As described above, 32Dp210-GFP includes GFP as a reporter gene, and thus, the CML cells having 32Dp210-GFP inserted (32Dp210-GFP cells) are GFP-positive. Therefore, using FACS (FACS (BD Biosciences: FACSCalibur), the frequency of CML cells (32Dp210-GFP cells) in mononucleic cells of the bone marrow and spleen was measured and compared between the imatinib group and the imatinib+compound a group.

hematopoietic stem cells [3] = test: Hematopoietic recovery after total-body radiation (9Gy) and bone-marrow transplantation (Experimental Example 4); type: in vivo, C57BI6/J mice
Method: Specifically, C57BI6/J mice (recipient), which were wild-type inbred strain mice, were treated with total-body radiation (9Gy), and four hours later, bone-marrow cells were transplanted into the mice. Concurrently with the transplantation, compound a was administered to the mice as a test compound via oral gavage (dosage 100 mg/kg), and compound a was daily administered orally for 5 consecutive days (administered group).
The survival rate of the mice after bone-marrow transplantation was tracked over time (each group: n=15).
Bone-marrow cells collected from the mice (administered group and control group) 7 days after bone-marrow transplantation were measured for the presence of Lin-SLAM cells with a flow cytometric analyzer (see FIG. 5A). Each test was independently conducted (each group: n=6).
The proportion (%) of Lin-SLAM cells in the whole bone marrow, the total number of Lin-SLAM cells in the bone marrow, the proportion (%) of LSK-CD34 negative cells in the bone marrow, and the total number of LSK-CD34 negative cells in the bone marrow were measured.
The bone-marrow cells collected from the mice (administered group, control group) 7 days after bone-marrow transplantation were measured for the plasminogen (Plg) mRNA expression level, tPA mRNA expression level, and PAI-1 mRNA expression level.
Bone marrow was collected from the mice (administered group and control group) 13 weeks after bone-marrow transplantation, and the following was measured: the total number of whole bone marrow (FIG. 7A), the proportion (%) of LSK-CD34 negative cells in the whole bone marrow (FIG. 7B), the total number of CD34(−)KSL cells in the whole bone marrow (FIG. 7C), the proportion (%) of Lin-SLAM cells in the whole bone marrow (FIG. 7D), the total number of Lin-SLAM cells in the whole bone marrow (FIG. 7E), the proportion (%) of bone marrow differentiated cells (CD45.1/Mac1/Gr1 cell) in the whole bone marrow (FIG. 7F), the total number of bone marrow differentiated cells (CD45.1/Mac1/Gr1 cell) in the whole bone marrow (FIG. 7G), the proportion (%) of B-cell lymphoid differentiated cells (CD45.1/B 220 cell) in the whole bone marrow (FIG. 7H), and the total number of B cell lymphoid differentiated cells (CD45.1/B 220 cell) in the whole bone marrow (FIG. 7I). The results are shown in the above-stated figures.

[4] = imatinib 150 mg/kg/day + compound a 100 mg/kg/day
[5] = 100 mg/kg oral gavage, 5 consecutive days, days 2, 7, 21 after bone-marrow transplantation, versus vehicle control
[6] = 100 mg/kg oral, 7 days after bone-marrow transplantation

O=C(COCC(=O)N1CCN(C(c2ccccc2)c2ccccc2)CC1)Nc1ccc(Cl)cc1C(=O)[O-].[Na+] [Example 30 (compound group 2), 2-(2-(2-(4-benzhydrylpiperazin-1-yl)-2-oxoethoxy)acetamido)-5-chlorobenzoic acid sodium salt]
proportion of cells that were induced apoptosis (Annexin V) (hematopoietic stem cells [1]; compared with control group): decrease
cells in the S phase (BrdU incorporated into LSK cells) (hematopoietic stem cells [1]; control group 18.1%): 21.4%
Ki-67 positive, cells classified into the LSK fraction taken as 100% (hematopoietic stem cells [1]; control group 43.3%): 63.9%
cell count of cells at the S-G2-M phase (Ki-67) in bone-marrow mononucleic cells (hematopoietic stem cells [1]; control group 44.2%): 64.2%
cell count of cells at the G0/G1 phase (Ki-67) in bone-marrow mononucleic cells (hematopoietic stem cells [1]; control group 55.8%): 35.8%
survival rate on day 50 ([2]; imatinib 150 mg/kg/day (day 10-16) + compound a 100 mg/kg/day (day 10-14) via gavage): 60%
frequency of 32Dp210-GFP cells in bone-marrow mononucleic cells [2, 4]: about 1.7%
frequency of CML cells (32Dp210-GFP cells) in the spleen [2, 4]: about 6.6%
median survival period ([2]; imatinib 150 mg/kg/day + compound a 100 mg/kg/day via gavage, placebo 14 days): 40 days
cKitL level in plasma (hematopoietic stem cells [3]; [5]): significantly higher
plg level in plasma (hematopoietic stem cells [3]; [5]): significantly higher
tPA level in plasma (hematopoietic stem cells [3]; [5]): significantly higher
total MMP-9 level in plasma (hematopoietic stem cells [3]; [5]): significantly higher
white blood cell count in the peripheral blood (hematopoietic stem cells [3]; [5]): significantly higher
survival rate of the mice after bone-marrow transplantation (hematopoietic stem cells [3]; 100 mg/kg oral, concurrently with transplantation and 5 consecutive days, versus control group): significantly higher
whole bone marrow cell number; proportion and total number of LSK-CD34 negative cells, Lin-SLAM cells, bone marrow differentiated cells, B-cell lymphoid differentiated cells (hematopoietic stem cells [3]; 100 mg/kg oral, 13 weeks after bone-marrow transplantation, versus vehicle control): significantly higher
frequency of hematopoietic stem cells (Lin-SLAM cells, LSK-CD34 negative cells in bone marrow) (hematopoietic stem cells [3]; [6]): increases
mRNA expression of plasminogen, tissue-type plasminogen activator, and plasminogen activator inhibitor 1 in bone marrow (hematopoietic stem cells [3]; [6]): induces
